Reference: ChEMBL document CHEMBL1201862, “PubChem BioAssay data set” (2004)
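Exposure lasted 48 hours, with cells grown in 96-well plates and compounds tested at five concentrations. At the GI50, growth is halved.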 Active and inactive are the calls of the source. Rule as the data show it: active = GI50 up to about 1.1 µM and inactive = higher.

Tests used:
Experiment in all cases: inhibition of tumour cell growth, NCI panel, 48 h
[1] = system: 786-0
[2] = system: A498
[3] = system: A549
[4] = system: ACHN
[5] = system: BT-549
[6] = system: CAKI-1
[7] = system: CCRF-CEM
[8] = system: COLO 205
[9] = system: DU-145
[10] = system: EKVX
[11] = system: HCC 2998
[12] = system: HCT-116
[13] = system: HCT-15
[14] = system: HL-60
[15] = system: HOP-62
[16] = system: HOP-92
[17] = system: HT-29
[18] = system: Hs-578T
[19] = system: IGROV-1
[20] = system: K562
[21] = system: KM12
[22] = system: LOX IMVI
[23] = system: M14
[24] = system: MCF7
[25] = system: MDA-MB-231
[26] = system: MDA-MB-435
[27] = system: MDA-N
[28] = system: MOLT-4
[29] = system: Malme-3M
[30] = system: NCI-H226
[31] = system: NCI-H23
[32] = system: NCI-H460
[33] = system: NCI-H522
[34] = system: NCI/ADR-RES
[35] = system: OVCAR-3
[36] = system: OVCAR-4
[37] = system: OVCAR-8
[38] = system: PC-3
[39] = system: RPMI-8226
[40] = system: SF-268
[41] = system: SF-295
[42] = system: SF-539
[43] = system: SK-MEL-28
[44] = system: SK-MEL-2
[45] = system: SK-MEL-5
[46] = system: SK-OV-3
[47] = system: SN12C
[48] = system: SNB-19
[49] = system: SR
[50] = system: SW-620
[51] = system: TK-10
[52] = system: U-251
[53] = system: UACC-257
[54] = system: UACC-62
[55] = system: UO-31
[56] = system: OVCAR-5
[57] = system: SNB-75
[58] = system: T47D

## COc1cccc(NC(=O)CC(=O)Nc2cccc(OC)c2)c1
[1]
  GI50: > 100 µM (inactive)
[2]
  GI50: > 100 µM (inactive)
[3]
  GI50: > 100 µM (inactive)
[4]
  GI50: > 100 µM (inactive)
[5]
  GI50: > 100 µM (inactive)
[6]
  GI50: > 100 µM (inactive)
[7]
  GI50: > 100 µM (inactive)
[8]
  GI50: > 100 µM (inactive)
[9]
  GI50: > 100 µM (inactive)
[10]
  GI50: > 100 µM (inactive)
[11]
  GI50: > 100 µM (inactive)
[12]
  GI50: > 100 µM (inactive)
[13]
  GI50: > 100 µM
[14]
  GI50: > 100 µM (inactive)
[15]
  GI50: > 100 µM (inactive)
[16]
  GI50: > 100 µM (inactive)
[17]
  GI50: > 100 µM (inactive)
[18]
  GI50: > 100 µM (inactive)
[19]
  GI50: > 100 µM (inactive)
[20]
  GI50: > 100 µM (inactive)
[21]
  GI50: > 100 µM (inactive)
[22]
  GI50: > 100 µM (inactive)
[23]
  GI50: > 100 µM (inactive)
[24]
  GI50: > 100 µM (inactive)
[25]
  GI50: > 100 µM (inactive)
[26]
  GI50: > 100 µM (inactive)
[27]
  GI50: > 100 µM (inactive)
[28]
  GI50: > 100 µM (inactive)
[29]
  GI50: > 100 µM (inactive)
[30]
  GI50: > 100 µM (inactive)
[31]
  GI50: > 100 µM (inactive)
[32]
  GI50: > 100 µM (inactive)
[33]
  GI50: > 100 µM (inactive)
[34]
  GI50: > 100 µM (inactive)
[35]
  GI50: > 100 µM (inactive)
[36]
  GI50: > 100 µM (inactive)
[37]
  GI50: > 100 µM (inactive)
[38]
  GI50: > 100 µM (inactive)
[39]
  GI50: > 100 µM (inactive)
[40]
  GI50: > 100 µM (inactive)
[41]
  GI50: > 100 µM (inactive)
[42]
  GI50: > 100 µM (inactive)
[43]
  GI50: > 100 µM (inactive)
[44]
  GI50: > 100 µM (inactive)
[45]
  GI50: > 100 µM (inactive)
[46]
  GI50: > 100 µM (inactive)
[47]
  GI50: > 100 µM (inactive)
[48]
  GI50: > 100 µM (inactive)
[49]
  GI50: > 100 µM (inactive)
[50]
  GI50: > 100 µM (inactive)
[51]
  GI50: > 100 µM (inactive)
[52]
  GI50: > 100 µM (inactive)
[53]
  GI50: > 100 µM (inactive)
[54]
  GI50: > 100 µM (inactive)
[55]
  GI50: > 100 µM (inactive)

## CCCCN(CCCC)CC(O)c1cc(-c2ccc(C(F)(F)F)cc2)nc(-c2ccc(C(F)(F)F)cc2)c1 (stereo unspecified)
[1]
  GI50: 61.1 µM (inactive)
[2]
  GI50: > 100 µM (inactive)
[4]
  GI50: > 100 µM (inactive)
[6]
  GI50: > 100 µM (inactive)
[7]
  GI50: 50.9 µM (inactive)
[8]
  GI50: 79.8 µM (inactive)
[9]
  GI50: > 100 µM (inactive)
[10]
  GI50: 39.4 µM (inactive)
[11]
  GI50: 22.6 µM (inactive)
[12]
  GI50: 61.8 µM (inactive)
[13]
  GI50: 26.4 µM
[14]
  GI50: 32 µM (inactive)
[15]
  GI50: 70.8 µM (inactive)
[16]
  GI50: 61.5 µM (inactive)
[17]
  GI50: > 100 µM (inactive)
[19]
  GI50: > 100 µM (inactive)
[20]
  GI50: 76.2 µM (inactive)
[22]
  GI50: 35 µM (inactive)
[23]
  GI50: 91.4 µM (inactive)
[24]
  GI50: > 10 µM (inactive)
[25]
  GI50: 15.7 µM (inactive)
[26]
  GI50: 59.6 µM (inactive)
[28]
  GI50: > 100 µM (inactive)
[29]
  GI50: 44 µM (inactive)
[31]
  GI50: > 100 µM (inactive)
[32]
  GI50: > 100 µM (inactive)
[33]
  GI50: 75.3 µM (inactive)
[34]
  GI50: > 100 µM (inactive)
[35]
  GI50: 94.8 µM (inactive)
[36]
  GI50: > 100 µM (inactive)
[56]
  GI50: > 100 µM (inactive)
[37]
  GI50: > 100 µM (inactive)
[38]
  GI50: 55 µM (inactive)
[39]
  GI50: 39.9 µM (inactive)
[40]
  GI50: > 100 µM (inactive)
[41]
  GI50: 26.7 µM (inactive)
[42]
  GI50: > 100 µM (inactive)
[43]
  GI50: > 100 µM (inactive)
[44]
  GI50: > 100 µM (inactive)
[46]
  GI50: > 100 µM (inactive)
[47]
  GI50: 26.1 µM (inactive)
[48]
  GI50: > 100 µM (inactive)
[57]
  GI50: 13.8 µM (inactive)
[49]
  GI50: > 100 µM (inactive)
[50]
  GI50: > 100 µM (inactive)
[58]
  GI50: 34.4 µM (inactive)
[51]
  GI50: > 100 µM (inactive)
[52]
  GI50: > 100 µM (inactive)
[53]
  GI50: 49.3 µM (inactive)
[54]
  GI50: > 100 µM (inactive)
[55]
  GI50: 95.7 µM (inactive)
